Results taken from patent publication US11851440B2, “Modulators of eukaryotic initiation factor 2B, compositions and methods” (Denali Therapeutics Inc., priority 2017, dated 2023).

The molecules below were run on ISR pathway (ATF4 translation) (assay: ATF4 Nano Luciferase reporter integrated stress response (ISR) assay in H4 ATF4-NLuc cells). Conditions: Homo sapiens, H4 ATF4-NLuc (clone 17) cells; compound 30 minutes, then 50 um sodium arsenite for 6 hours; luminescence readout.

IC50	SMILES
1.9 nM	O=C(COc1ccc(Cl)c(F)c1)NC12CC(n3cnc([C@H]4C[C@@H](OC(F)(F)F)C4)c3)(C1)C2 [Example 61, 2-(4-chloro-3-fluoro-phenoxy)-N-[3-[4-[3-cis-(trifluoromethoxy)cyclobutyl]imidazol-1-yl]-1-bicyclo[1.1.1]pentanyl]acetamide]

Same assay, conditions: Homo sapiens, read-out: Activity (IC50), H4 ATF4-NLuc (clone 17) cells; compound 30 minutes, then 50 um sodium arsenite for 6 hours; luminescence readout

SMILES	IC50
O=C(COc1ccc(Cl)c(F)c1)NC12CC(c3nnc(CCOC(F)(F)F)o3)(C1)C2 [Example 55]	< 1000 nM
O=C(CCc1ccc(Cl)cn1)NC12CC(c3nnc([C@H]4C[C@@H](OC(F)(F)F)C4)o3)(C1)C2 [Example 56]	1000 to 10000 nM
O=C(COc1ccc(Cl)c(F)c1)NC12CC(c3cn(C4CC(O)C4)nn3)(C1)C2 (stereo not drawn) [Example 57]	1000 to 10000 nM
O=C(COc1ccc(Cl)c(F)c1)NC12CC(c3cn(Cc4ccccc4)nn3)(C1)C2 [Example 58]	< 1000 nM
O=C(COc1ccc(Cl)c(F)c1)NC12CC(n3cnc([C@H]4C[C@@H](OC(F)(F)F)C4)c3)(C1)C2 [Example 61, 2-(4-chloro-3-fluoro-phenoxy)-N-[3-[4-[3-cis-(trifluoromethoxy)cyclobutyl]imidazol-1-yl]-1-bicyclo[1.1.1]pentanyl]acetamide]	< 1000 nM
O=C(COc1ccc(Cl)c(F)c1)NC12CC(n3cnc([C@H]4C[C@H](OC(F)(F)F)C4)c3)(C1)C2 [Example 62, 2-(4-chloro-3-fluoro-phenoxy)-N-[3-[4-[3-trans-(trifluoromethoxy)cyclobutyl]imidazol-1-yl]-1-bicyclo[1.1.1]pentanyl]acetamide]	< 1000 nM
O=C(CO[C@H]1C[C@@H](OC(F)(F)F)C1)NC12CC(n3cnc([C@H]4C[C@@H](OC(F)(F)F)C4)c3)(C1)C2 [Example 63, 2-[3-cis-(trifluoromethoxy)cyclobutoxy]-N-[3-[4-[3-cis-(trifluoromethoxy)cyclobutyl]imidazol-1-yl]-1-bicyclo[1.1.1]pentanyl]acetamide]	< 1000 nM
O=C(COc1ccc(Cl)c(F)c1)NC12CC(c3cn([C@H]4C[C@@H](OC(F)(F)F)C4)nn3)(C1)C2 [Example 65, 2-(4-chloro-3-fluoro-phenoxy)-N-[3-[1-[3-cis-(trifluoromethoxy)cyclobutyl]triazol-4-yl]-1-bicyclo[1.1.1]pentanyl]acetamide]	< 1000 nM
O=C(COc1ccc(F)cc1)NC12CC(c3nnc([C@H]4C[C@H](OC(F)(F)F)C4)o3)(C1)C2 [Example 72, 2-(4-fluorophenoxy)-N-[3-[5-[3-trans-(trifluoromethoxy)cyclobutyl]-1,3,4-oxadiazol-2-yl]-1-bicyclo[1.1.1]pentanyl]acetamide]	< 1000 nM
O=C(CO[C@H]1C[C@@H](OC(F)(F)F)C1)NC12CC(c3nnc(-c4cncc(F)c4)o3)(C1)C2 [Example 73, N-[1-[5-(5-fluoro-3-pyridyl)-1,3,4-oxadiazol-2-yl]-3-bicyclo[1.1.1]pentanyl]-2-[3-cis-(trifluoromethoxy)cyclobutoxy]acetamide]	1000 to 10000 nM
C#CCN(C(=O)COc1ccc(Cl)cc1)C12CC(c3nnc([C@H]4C[C@@H](OC(F)(F)F)C4)o3)(C1)C2 [Example 74, 2-(4-chlorophenoxy)-N-prop-2-ynyl-N-[1-[5-[3-cis-(trifluoromethoxy)cyclobutyl]-1,3,4-oxadiazol-2-yl]-3-bicyclo[1.1.1]pentanyl]acetamide]	< 1000 nM
O=C(CC[C@H]1C[C@@H](OC(F)(F)F)C1)NC12CC(c3nnc(C4CC(OC(F)(F)F)C4)o3)(C1)C2 (stereo partly drawn) [Example 75, 3-[3-cis-(trifluoromethoxy)cyclobutyl]-N-[3-[5-[3-cis-(trifluoromethoxy)cyclobutyl]-1,3,4-oxadiazol-2-yl]-1-bicyclo[1.1.1]pentanyl]propanamide]	1000 to 10000 nM
O=C(NC12CC(c3nnc([C@H]4C[C@@H](OC(F)(F)F)C4)o3)(C1)C2)C1Cc2cc(Cl)ccc2O1 (stereo partly drawn) [Example 76, 5-chloro-N-[3-[5-[3-cis-(trifluoromethoxy)cyclobutyl]-1,3,4-oxadiazol-2-yl]-1-bicyclo[1.1.1]pentanyl]-2,3-dihydrobenzofuran-2-carboxamide]	< 1000 nM
O=C(CO[C@H]1C[C@@H](OC(F)(F)F)C1)NC12CC(c3cn(-c4ccc(Cl)c(F)c4)nn3)(C1)C2 [Example 77, N-[3-[1-(4-chloro-3-fluoro-phenyl)triazol-4-yl]-1-bicyclo[1.1.1]pentanyl]-2-[3-cis-(trifluoromethoxy)cyclobutoxy]acetamide]	< 1000 nM
O=C(CO[C@H]1C[C@@H](OC(F)(F)F)C1)NC12CC(c3cnn(-c4ccc(Cl)c(F)c4)n3)(C1)C2 [Example 78, N-[3-[2-(4-chloro-3-fluoro-phenyl)triazol-4-yl]-1-bicyclo[1.1.1]pentanyl]-2-[3-cis-(trifluoromethoxy)cyclobutoxy]acetamide]	< 1000 nM
O=C(COc1ccc(Cl)c(F)c1)NC12CC(c3cnn([C@H]4C[C@@H](OC(F)(F)F)C4)n3)(C1)C2 [Example 79, 2-(4-chloro-3-fluoro-phenoxy)-N-[3-[2-[3-cis-(trifluoromethoxy)cyclobutyl]triazol-4-yl]-1-bicyclo[1.1.1]pentanyl]acetamide]	< 1000 nM
O=C(NC12CC(c3nnc([C@H]4C[C@@H](OC(F)(F)F)C4)o3)(C1)C2)OC[C@H]1C[C@@H](OC(F)(F)F)C1 [Example 88, [3-cis-(trifluoromethoxy)cyclobutyl]methyl N-[3-[5-[3-cis-(trifluoromethoxy)cyclobutyl]-1,3,4-oxadiazol-2-yl]-1-bicyclo[1.1.1]pentanyl]carbamate]	< 1000 nM
O=C(CO[C@H]1C[C@@H](COC(F)(F)F)C1)NC12CC(c3nnc([C@H]4C[C@@H](OC(F)(F)F)C4)o3)(C1)C2 [Example 89, N-[3-[5-[3-cis-(trifluoromethoxy)cyclobutyl]-1,3,4-oxadiazol-2-yl]-1-bicyclo[1.1.1]pentanyl]-2-[3-cis-(trifluoromethoxymethyl)cyclobutoxy]acetamide]	< 1000 nM
O=C(COCCOC(F)(F)F)NC12CC(c3nnc([C@H]4C[C@@H](OC(F)(F)F)C4)o3)(C1)C2 [Example 94, N-[3-[5-[3-cis-(trifluoromethoxy)cyclobutyl]-1,3,4-oxadiazol-2-yl]-1-bicyclo[1.1.1]pentanyl]-2-[2-(trifluoromethoxy)ethoxy]acetamide]	1000 to 10000 nM
O=C(CO[C@H]1C[C@H](OC(F)(F)F)C1)NC12CC(c3nnc([C@H]4C[C@@H](OC(F)(F)F)C4)o3)(C1)C2 [Example 95, 2-[3-trans-(trifluoromethoxy)cyclobutoxy]-N-[3-[5-[3-cis-(trifluoromethoxy)cyclobutyl]-1,3,4-oxadiazol-2-yl]-1-bicyclo[1.1.1]pentanyl]acetamide]	< 1000 nM

More lines, now with the values ahead:

IC50	SMILES
< 1000 nM	O=C(COc1ccc(Cl)c(F)c1)NC12CC(c3nnc(CO[C@H]4C[C@@H](OC(F)(F)F)C4)o3)(C1)C2 [Example 53]
< 1000 nM	O=C(COc1ccc(Cl)c(F)c1)NC12CC(c3cn([C@H]4C[C@H](OC(F)(F)F)C4)nn3)(C1)C2 [Example 64, 2-(4-chloro-3-fluoro-phenoxy)-N-[3-[1-[3-trans-(trifluoromethoxy)cyclobutyl]triazol-4-yl]-1-bicyclo[1.1.1]pentanyl]acetamide]
< 1000 nM	O=C(COc1ccc(Cl)c(F)c1)NC12CC(n3cnc(C4CN(CC(F)(F)F)C4)c3)(C1)C2 [Example 67, 2-(4-chloro-3-fluoro-phenoxy)-N-[3-[4-[1-(2,2,2-trifluoroethyl)azetidin-3-yl]imidazol-1-yl]-1-bicyclo[1.1.1]pentanyl]acetamide]
< 1000 nM	O=C(COc1ccc(Cl)cc1)NC12CC(n3cnc([C@H]4C[C@@H](OC(F)(F)F)C4)c3)(C1)C2 [Example 68, 2-(4-chlorophenoxy)-N-[3-[4-[3-cis-(trifluoromethoxy)cyclobutyl]imidazol-1-yl]-1-bicyclo[1.1.1]pentanyl]acetamide]
< 1000 nM	O=C(COc1ccc(Cl)cc1)NC12CC(n3cnc([C@H]4C[C@H](OC(F)(F)F)C4)c3)(C1)C2 [Example 69, 2-(4-chlorophenoxy)-N-[3-[4-[3-trans-(trifluoromethoxy)cyclobutyl]imidazol-1-yl]-1-bicyclo[1.1.1]pentanyl]acetamide]
< 1000 nM	O=C(COc1ccc(F)cc1)NC12CC(c3nnc([C@H]4C[C@@H](OC(F)(F)F)C4)o3)(C1)C2 [Example 71, 2-(4-fluorophenoxy)-N-[3-[5-[3-cis-(trifluoromethoxy)cyclobutyl]-1,3,4-oxadiazol-2-yl]-1-bicyclo[1.1.1]pentanyl]acetamide]
1000 to 10000 nM	O=C(COC1CC2C(C1)C2(F)F)NC12CC(c3nnc([C@H]4C[C@@H](OC(F)(F)F)C4)o3)(C1)C2 (stereo partly drawn) [Example 83, 2-[(6,6-difluoro-3-bicyclo[3.1.0]hexanyl)oxy]-N-[3-[5-[3-cis-(trifluoromethoxy)cyclobutyl]-1,3,4-oxadiazol-2-yl]-1-bicyclo[1.1.1]pentanyl]acetamide]
< 1000 nM	O=C(COc1ccc(Cl)cc1)NC12CC(c3nnc([C@H]4C[C@@H](COC(F)(F)F)C4)o3)(C1)C2 [Example 86, 2-(4-chlorophenoxy)-N-[3-[5-[3-cis-(trifluoromethoxymethyl)cyclobutyl]-1,3,4-oxadiazol-2-yl]-1-bicyclo[1.1.1]pentanyl]acetamide]
< 1000 nM	O=C(COc1ccc(Cl)c(F)c1)NC12CC(c3nnc(C4(F)CN(CC(F)(F)F)C4)o3)(C1)C2 [Example 93, 2-(4-chloro-3-fluoro-phenoxy)-N-[3-[5-[3-fluoro-1-(2,2,2-trifluoroethyl)azetidin-3-yl]-1,3,4-oxadiazol-2-yl]-1-bicyclo[1.1.1]pentanyl]acetamide]

Same assay, conditions: read-out: Activity (IC50); H4 ATF4-NLuc (clone 17) cells; compound 30 minutes, then 50 um sodium arsenite for 6 hours; luminescence readout

IC50	SMILES
1000 to 10000 nM	O=C(COc1ccc(Cl)c(F)c1)NC12CC(C3CN(C4CCC4)C(=O)O3)(C1)C2 (stereo not drawn) [Example 59]
< 1000 nM	O=C(COc1ccc(Cl)c(F)c1)NC12CC(C3CN(CC4CCC4)C(=O)O3)(C1)C2 (stereo not drawn) [Example 60]

SMILES	IC50
O=C(COc1ccc(Cl)cc1)NC12CC(c3nnc([C@H]4C[C@H](COC(F)(F)F)C4)o3)(C1)C2 [Example 87, 2-(4-chlorophenoxy)-N-[3-[5-[3-trans-(trifluoromethoxymethyl)cyclobutyl]-1,3,4-oxadiazol-2-yl]-1-bicyclo[1.1.1]pentanyl]acetamide]	< 1000 nM
